Results published in patent US7790763B2, “Substituted phenyl methanone derivatives” (Hoffmann-La Roche Inc., priority 2005, dated 2010).

Target: T1, mGlyT-1b (Mus musculus, UniProt P28571)
T1 construct: host or cells: Flp-in-CHO cells, stably transfected
T1 sequence (P28571 1-651 isoform P28571-2): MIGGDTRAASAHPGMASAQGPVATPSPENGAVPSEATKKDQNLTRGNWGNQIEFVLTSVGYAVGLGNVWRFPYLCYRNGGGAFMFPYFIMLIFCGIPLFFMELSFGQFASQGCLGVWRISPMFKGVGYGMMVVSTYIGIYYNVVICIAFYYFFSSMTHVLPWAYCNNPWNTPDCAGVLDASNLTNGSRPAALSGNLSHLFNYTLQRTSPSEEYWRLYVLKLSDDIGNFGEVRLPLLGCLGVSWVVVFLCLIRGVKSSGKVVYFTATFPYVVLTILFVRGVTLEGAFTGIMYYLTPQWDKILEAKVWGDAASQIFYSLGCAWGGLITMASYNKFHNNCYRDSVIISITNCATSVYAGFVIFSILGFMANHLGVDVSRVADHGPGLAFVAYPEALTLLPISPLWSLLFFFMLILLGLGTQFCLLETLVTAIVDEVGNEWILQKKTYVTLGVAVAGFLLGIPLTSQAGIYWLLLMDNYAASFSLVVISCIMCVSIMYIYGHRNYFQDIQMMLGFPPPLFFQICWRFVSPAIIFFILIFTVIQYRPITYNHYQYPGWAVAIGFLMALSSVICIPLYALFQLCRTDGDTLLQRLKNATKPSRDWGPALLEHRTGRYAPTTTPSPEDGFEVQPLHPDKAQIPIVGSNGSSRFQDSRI
Test: Glycine uptake inhibition assay (mGlyT-1b)
Type: cell-based
Conditions: [3H]-glycine uptake, Flp-in-CHO cells transfected with mGlyT-1b cDNA, 20 min preincubation at 22° C.; read-out: IC50 (μM) at GlyT-1
Method: DMEM complete medium: Nutrient mixture F-12 (Gibco Life-technologies), fetal bovine serum (FBS) 5%, (Gibco life technologies), Penicillin/Streptomycin1% (Gibco life technologies), Hygromycin 0.6 mg/ml (Gibco life technologies), Glutamine 1 mM Gibco life technologies)
Uptake buffer (UB): 150 mM NaCl, 10 mM Hepes-Tris, pH 7.4, 1 mM CaCl2, 2.5 mM KCl, 2.5 mM MgSO4, 10 mM (+) D-glucose. Flp-in™-CHO (Invitrogen Cat n° R758-07)cells stably transfected with mGlyT1b cDNA.
Glycine Uptake Inhibition Assay (mGlyT-1b)
On day 1 mammalian cells, (Flp-in™-CHO), transfected with mGlyT-1b cDNA, were plated at the density of 40,000 cells/well in complete F-12 medium, without hygromycin in 96-well culture plates. On day 2, the medium was aspirated, and the cells were washed twice with uptake buffer (UB). The cells were then incubated for 20 min at 22° C. with either (i) no potential competitor, (ii) 10 mM non-radioactive glycine, (iii) a concentration of a potential inhibitor. A range of concentrations of the potential inhibitor was used to generate data for calculating the concentration of inhibitor resulting in 50% of the effect (e.g. IC50, the concentration of the competitor inhibiting glycine uptake of 50%). A solution was then immediately added containing [^3H]-glycine 60 nM (11-16 Ci/mmol) and 25 μM non-radioactive glycine. The plates were incubated with gentle shaking, and the reaction was stopped by aspiration of the mixture and washing (three times) with ice-cold UB. The cells were lysed with scintillation liquid, shaken 3 hours and the radioactivity in the cells was counted using a scintillation counter.

Row | SMILES | IC50 [µM]
1 | CS(=O)(=O)c1ccc(N2CCOCC2)c(C(=O)N2CCC(Oc3ccc(C(F)(F)F)cc3)C2)c1 (centres unmarked) [Example 25, (5-Methanesulfonyl-2-morpholin-4-yl-phenyl)-[3-(4-trifluoromethyl-phenoxy)-pyrrolidin-1-yl]-methanone] | 0.078
2 | C[C@H](Oc1ccc(S(C)(=O)=O)cc1C(=O)N1CC(Oc2ccc(C(F)(F)F)cc2)C1)C(F)(F)F [Example 23, [5-Methanesulfonyl-2-((S)-2,2,2-trifluoro-1-methyl-ethoxy)-phenyl]-[3-(4-trifluoromethyl-phenoxy)-azetidin-1-yl]-methanone] | 0.39
3 | CC(=O)c1ccc(OC2CCN(C(=O)c3cc(S(C)(=O)=O)ccc3OC(C)C)CC2)c(F)c1 [Example 5, 1-{3-Fluoro-4-[1-(2-isopropoxy-5-methanesulfonyl-benzoyl)-piperidin-4-yloxy]-phenyl}-ethanone] | 0.93
4 | CC(C)Oc1ccc(S(C)(=O)=O)cc1C(=O)N1CCC(Oc2ccc(C(F)(F)F)cc2)C1 (racemic) [Example 13, Rac-(2-Isopropoxy-5-methanesulfonyl-phenyl)-[3-(4-trifluoromethyl-phenoxy)-pyrrolidin-1-yl]-methanone] | 0.55
5 | CNS(=O)(=O)c1ccc(OC2CCCC2)c(C(=O)N2CCC(Oc3ccc(C(F)(F)F)cc3)C2)c1 (centres unmarked) [Example 26, 4-Cyclopentyloxy-N-methyl-3-[3-(4-trifluoromethyl-phenoxy)-pyrrolidine-1-carbonyl]-benzenesulfonamide] | 0.109
6 | CC(C)Oc1ccc(S(C)(=O)=O)cc1C(=O)N1CCC(Oc2ccc([N+](=O)[O-])cc2)CC1 [Example 4, (2-Isopropoxy-5-methanesulfonyl-phenyl)-[4-(4-nitro-phenoxy)-piperidin-1-yl]-methanone] | 1
7 | CC(C)Oc1ccc(S(C)(=O)=O)cc1C(=O)N1CCC(Oc2cc(C(F)(F)F)ccc2F)CC1 [Example 8, [4-(2-Fluoro-5-trifluoromethyl-phenoxy)-piperidin-1-yl]-(2-isopropoxy-5-methanesulfonyl-phenyl)-methanone] | 0.63
8 | CC(C)Oc1ccc(S(C)(=O)=O)cc1C(=O)N1CCC(Oc2ccc3ccccc3c2)C1 (racemic) [Example 18, Rac-(2-Isopropoxy-5-methanesulfonyl-phenyl)-[3-(naphthalen-2-yloxy)-pyrrolidin-1-yl]-methanone] | 0.87
9 | CC(C)Oc1ccc(S(C)(=O)=O)cc1C(=O)N1CC(Oc2ccc(C(F)(F)F)cc2)C1 [Example 21, (2-Isopropoxy-5-methanesulfonyl-phenyl)-[3-(4-trifluoromethyl-phenoxy)-azetidin-1-yl]-methanone] | 0.87
10 | CC(C)Oc1ccc(S(C)(=O)=O)cc1C(=O)N1CC(Oc2cccc(C(F)(F)F)c2)C1 [Example 22, (2-Isopropoxy-5-methanesulfonyl-phenyl)-[3-(3-trifluoromethyl-phenoxy)-azetidin-1-yl]-methanone] | 0.7
11 | C[C@@H](Oc1ccc(S(C)(=O)=O)cc1C(=O)N1CC(Oc2ccc(C(F)(F)F)cc2)C1)C(F)(F)F [Example 24, [5-Methanesulfonyl-2-((R)-2,2,2-trifluoro-1-methyl-ethoxy)-phenyl]-[3-(4-trifluoromethyl-phenoxy)-azetidin-1-yl]-methanone] | 0.84
